We go through five compounds from patent US10053476B2, “Phosphohistidine and phosphotyrosine analogues” (UNIVERSITY OF SHEFFIELD, priority 2013, dated 2018).

The test system of series [1] is polyclonal sera raised against 4-phosphopyrazol-1-yl alanine. Nature of the series: Dot blot of BSA-glutaraldehyde conjugated analogues with affinity depleted rabbit and rat sera. Format: binding. Particulars: BSA-glutaraldehyde conjugated analogue; rabbit and rat sera affinity depleted with histidine-KLH. Here is the method: Solutions of the BSA-amino acid conjugates of histidine, tele-phosphohistidine, and the analogues, were first diluted 1000 fold. These solutions as well as the commercially available solutions of BSA conjugated to phosphoserine, phosphothreonine, and phosphotyrosine were spotted (2 μL) onto a PVDF membrane. Once the spots were dry, the membrane was rinsed with methanol before being blocked in 5% non-fat dry milk in 10 mM Tris-HCl pH 8.0, 17 mM NaCl (TBS), Tween (0.05%) (5% NFDM/TBST) for 1 hour and then incubated with the rat sera raised against the analogue of interest at 1/1000 dilution in 5% NFDM/TBST overnight at 4° C. The membrane was then washed using TBS-Tween (0.05%) 3 times for 15 minutes, before being incubated with a 1/2000 fold dilution of goat anti-rat IgG-HRP conjugate in 5% NFDM/TBST for 60 minutes at room temperature. Membranes were then washed 3 times for 15 minutes using TBS-Tween (0.05%) and then treated with SuperSignal West Dura Chemiluminescent Substrate for 3 minutes. […]
In addition, further antibodies against 4-phosphopyrazol-1-yl alanine were raised as described in sections 2.1.1 to 2.1.4 above, and dot blot analysis conducted as described in section 2.5. […] The data establishes that 4-phosphopyrazol-1-yl alanine amide and 4-phosphothiazol-1-yl alanine amide are detected by the polyclonal sera raised against 4-phosphopyrazol-1-yl alanine.

Consider `C[C@H](N[SH]1C=NC(P(=O)(O)O)=C1)C(N)=O` (some centres unmarked) [4-phosphothiazol-1-yl alanine amide], for which the “detection by polyclonal sera raised against 4-phosphopyrazol-1-yl alanine (dot blot)” value in series [1] was “detected”. The compound `N[C@@H](Cc1ccc(P(=O)(O)O)cn1)C(=O)O` [Compound 6] returned a melting point of 270 °C. The same measure, in the same setting: with `N[C@@H](Cn1cc(P(=O)(O)O)cn1)C(=O)O` [Compound 12] the figure was 200 °C; with `N[C@@H](Cc1cc(P(=O)(O)O)cs1)C(=O)O` [Compound 17], 260 °C; with `N[C@@H](Cc1ncc(P(=O)(O)O)s1)C(=O)O` [Compound 20, (S)-2-Amino-3-(5-phosphoryl-1,3-thiazol-2-yl)propanoic acid], 196 to 199 °C (dec.).
